Series [1] concerns [18F]D4-FCH uptake in C4-2B cells. In words: [18F]D4-FCH uptake in vitro study, C4-2B. The class given is cell-based. The note with it: Homo sapiens, 1 μM, read-out: inhibition of [18F]D4-FCH uptake (mean of CK14, CK145 and CK146). How it is done: HCT-116 and C4-2B cells were seeded at a density of 5 × 10^5 cells per well into 6-well plates and incubated overnight. Cells were treated with 1 or 10 µM CHKA inhibitors (CK14, CK145, CK146 and CK147) for 1 h and pulsed with [^18F]D4-FCH (740 kBq) in presence of inhibitors in 1 mL for an additional hour at 37 °C. Cells were washed with ice-cold PBS three times and lysed in 1 mL RIPA buffer. The radioactivity of 800 µL lysate from each well was counted on a gamma counter (Perkin Elmer, Beaconsfield, UK) and normalized to protein content as determined by BCA assay.

Series [2] relates to Δ49N CHKA2 (recombinant CHKA2). The note with it: read-out: IC50 Δ49N CHKA2; cited from earlier work.
The test system of series [3] is MCF-10A and ST-T1B (2 normal cell lines). The note with it: read-out: GI50 range of 2 normal cell lines (MCF-10A and ST-T1B); cited from earlier work.
The subject of series [4] is A549. The note with it: cited from earlier work.
In series [5] the test system is HCT-116. The note with it: cited from earlier work.
Series [6] has as its system 8 cancer cell lines. Further details: method as in PMID 27206796. The note with it: cited from earlier work.
The test system of series [7] is HCT116 xenografts. The note with it: cited from earlier work.

Structures are written as SMILES. Like-named read-outs stand apart in the source and are kept apart here.

In general, inhibition refers to how much of the control response was suppressed. On to `CN(C)c1cc[n+](CCCCCCCCCCCCCC[n+]2ccc(N3CCNCC3)cc2)cc1` [CK146], for which, in series [1], the inhibition at 1 µM turned out to be 46 ± 1%.
Take `CC(=O)NCCCCC(NC(=O)OC(C)(C)C)C(=O)N1CCN(c2cc[n+](CCCCCCCCCCCCCC[n+]3ccc(N(C)C)cc3)cc2)CC1` (stereo not shown) [CK145]: the inhibition at 1 µM in series [1] was 46 ± 1%.
What is called IC50 is the concentration that inhibits the measured activity by half. Usually GI50 stands for the concentration giving 50% growth inhibition. Consider `CN(C)c1cc[n+](CCCCCCCCCCCC[n+]2ccc(N(C)C)cc2)cc1` [ICL-CCIC-0019], for which the IC50 in series [2] is 270 ± 60 nM. The GI50 was 30000 to 120000 nM in series [3]; 380 nM in series [4]; 640 nM in series [5]; 380 to 2700 nM in series [6] (read-out: GI50 range of 8 cancer cell lines); 1090 nM in series [6] (read-out: mean GI50 of 8 cancer cell lines). Besides, the “in vivo anti-tumor activity (in words)” value in series [7] was “potent in vivo anti-tumor activity”. The “body weight effect (in words)” value in series [7] (in vivo) was “slight reduction in body weight”.

The values are drawn from paper PMC8309005, “Novel Non-Congeneric Derivatives of the Choline Kinase Alpha Inhibitor ICL-CCIC-0019” (Pharmaceutics, 2021).
